As a reminder, the EC50 is the concentration at which the effect is half-maximal. As a reminder, the IC50 is the concentration that inhibits the measured activity by half. Low readings indicate greater potency, high ones weaker potency.

One experiment deals with T1, Human full-length ERβ (Homo sapiens, UniProt Q92731).
T1 construct: expression vector encoding human full-length ERα or ERβ; expressed in transfected cells; host or cells: HEK293, transiently transfected
Briefly: ERβ cell-based luciferase reporter assay, agonist mode, transiently transfected HEK293 cells. The method, then:
(§1) The selectivity and potency of the various compounds was carried out via in vitro testing in ERα and ERβ cell-based reporter assays. The activity of the selected compounds was determined in the cell-based reporter assays in HEK293 cells.
(§2) The HEK293 cells were propagated in a monolayer in phenol red-free DMEM supplemented with 10% fetal bovine serum, 2 mM Glutamax and penicillin/streptomycin (Thermo Fisher Scientific, MA, USA) and incubated in a 5% CO2 humidified atmosphere at 37° C. Right before transfection, the growth medium was changed to phenol red-free DMEM supplemented with 4% HyClone Fetal Bovine Serum, Charcoal/Dextran Treated (GE Healthcare Life Sciences, USA) and 2 mM Glutamax (starvation medium). The cells were transfected with the expression vector encoding human full-length ERα or ERβ and with the reporter vector containing 3 repeats of estrogen responsive elements (ERE) followed by the minimal thymidine kinase promoter from the herpes simplex virus in the pGL4 vector (Promega, USA). Luciferase served as a reporter gene. The transfection was carried out in 10 cm dishes (Nunc) in the starvation medium. After 24 hours, the cells were trypsinized, counted and seeded to cell culture treated, white, solid 1536-well plates (Corning Inc., NY, USA) at 1500 cells/well in 4 μl of total media volume. The compounds to be tested were diluted in DMSO and transferred to the cells using an acoustic dispenser Echo 520 (Labcyte). The compounds were tested at least at 12 different concentration points in the range from 10 μM to 100 pM, in triplicates. Luciferase activity was determined after 24 hours of incubation with compounds with Britelite plus luciferase reporter gene assay reagent (Perkin Elmer, USA), according to the manufacturer protocol. The luciferase signal was measured on an Envison multimode plate reader (Perkin Elmer, USA). Data were collected and processed using an in-house built LIMS system ScreenX and GraphPad Prism software. EC50 values were calculated using a regression function (dose response, variable slope).
(In general: A reporter such as luciferase makes a cellular process visible.)

The target of a further experiment is T2, Human full-length GR (Homo sapiens, UniProt P04150).
T2 sequence (P04150 1-777): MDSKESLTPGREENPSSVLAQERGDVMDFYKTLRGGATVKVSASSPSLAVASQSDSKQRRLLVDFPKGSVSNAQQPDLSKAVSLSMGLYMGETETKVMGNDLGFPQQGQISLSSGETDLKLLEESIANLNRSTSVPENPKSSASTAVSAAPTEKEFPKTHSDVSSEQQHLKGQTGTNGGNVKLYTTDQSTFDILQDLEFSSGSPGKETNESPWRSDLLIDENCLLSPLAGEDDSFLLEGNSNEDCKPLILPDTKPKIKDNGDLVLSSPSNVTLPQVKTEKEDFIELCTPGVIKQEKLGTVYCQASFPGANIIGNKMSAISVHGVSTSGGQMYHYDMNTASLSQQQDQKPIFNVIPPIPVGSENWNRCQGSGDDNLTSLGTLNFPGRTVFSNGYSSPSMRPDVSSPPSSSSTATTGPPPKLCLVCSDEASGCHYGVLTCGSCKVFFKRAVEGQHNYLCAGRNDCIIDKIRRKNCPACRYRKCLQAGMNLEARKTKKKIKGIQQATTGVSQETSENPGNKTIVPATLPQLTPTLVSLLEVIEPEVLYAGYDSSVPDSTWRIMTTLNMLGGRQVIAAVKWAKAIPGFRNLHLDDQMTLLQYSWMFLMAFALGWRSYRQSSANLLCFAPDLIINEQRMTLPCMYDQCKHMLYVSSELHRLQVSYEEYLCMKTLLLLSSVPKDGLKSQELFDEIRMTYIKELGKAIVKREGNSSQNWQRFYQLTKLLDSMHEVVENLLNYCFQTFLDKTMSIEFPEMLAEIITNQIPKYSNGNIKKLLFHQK
Briefly: GR cell-based luciferase reporter assay, agonist and antagonist mode, stable U2OS reporter cells. The conditions noted are these: agonist mode and antagonist mode (10 nM dexamethasone), 100 μM to 100 pM, 24 hours.

The next experiment deals with HEK293 cells. Briefly: HEK293 viability assay (ATPlite 1step). The conditions noted are these: non-transfected HEK293, 24 h, ATP level; for HEK293 viability IC50 (μM): Low = activity detected but too low for exact value. The class given is cell-based, human. The method, then:
The non-transfected HEK293 cells were seeded to the 384-well plates at 5000 cell/well, compounds were added and the timing of all subsequent steps was exactly the same as in the reporter assays. […] After 24 h of compound incubation with cells, the viability of cells was measured by determining the ATP level in the samples using luciferase cell viability assay, ATPlite 1step (Perkin Elmer, USA).

For the next experiment, the target named is T3, Human full-length AR (Homo sapiens, UniProt P10275).
T3 sequence (P10275 1-920): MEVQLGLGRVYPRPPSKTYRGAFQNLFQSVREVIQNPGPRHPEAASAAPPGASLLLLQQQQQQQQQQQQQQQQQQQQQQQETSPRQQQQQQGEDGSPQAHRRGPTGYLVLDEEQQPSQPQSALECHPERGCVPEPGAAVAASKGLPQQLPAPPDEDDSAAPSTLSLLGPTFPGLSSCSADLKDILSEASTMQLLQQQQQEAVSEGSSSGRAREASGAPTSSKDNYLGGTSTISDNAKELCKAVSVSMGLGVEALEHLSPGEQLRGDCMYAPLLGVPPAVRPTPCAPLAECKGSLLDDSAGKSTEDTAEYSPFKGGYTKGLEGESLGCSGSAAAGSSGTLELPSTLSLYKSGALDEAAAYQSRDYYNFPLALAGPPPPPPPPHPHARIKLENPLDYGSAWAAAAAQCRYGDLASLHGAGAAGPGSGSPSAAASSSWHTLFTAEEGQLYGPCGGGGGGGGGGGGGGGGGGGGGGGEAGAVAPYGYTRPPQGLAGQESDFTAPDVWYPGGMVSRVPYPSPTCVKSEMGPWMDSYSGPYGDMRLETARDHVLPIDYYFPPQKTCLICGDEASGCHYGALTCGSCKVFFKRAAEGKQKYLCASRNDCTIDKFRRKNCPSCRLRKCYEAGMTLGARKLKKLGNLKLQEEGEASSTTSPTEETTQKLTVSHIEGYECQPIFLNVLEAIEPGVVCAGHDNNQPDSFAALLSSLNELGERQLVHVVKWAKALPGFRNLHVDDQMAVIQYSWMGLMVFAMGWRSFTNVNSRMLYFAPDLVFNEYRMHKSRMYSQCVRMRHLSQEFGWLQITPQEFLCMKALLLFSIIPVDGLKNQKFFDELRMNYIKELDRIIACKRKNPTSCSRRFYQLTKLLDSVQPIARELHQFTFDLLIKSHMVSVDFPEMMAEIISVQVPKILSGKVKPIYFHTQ
Briefly: AR cell-based luciferase reporter assay, agonist and antagonist mode, stable U2OS reporter cells. The conditions noted are these: agonist mode and antagonist mode (2 nM dihydrotestosterone), 100 μM to 100 pM, 24 hours.

A further experiment deals with T4, Human full-length ERα (Homo sapiens, UniProt P03372).
T4 construct: expression vector encoding human full-length ERα or ERβ; expressed in transfected cells; host or cells: HEK293, transiently transfected
T4 sequence (P03372 1-595): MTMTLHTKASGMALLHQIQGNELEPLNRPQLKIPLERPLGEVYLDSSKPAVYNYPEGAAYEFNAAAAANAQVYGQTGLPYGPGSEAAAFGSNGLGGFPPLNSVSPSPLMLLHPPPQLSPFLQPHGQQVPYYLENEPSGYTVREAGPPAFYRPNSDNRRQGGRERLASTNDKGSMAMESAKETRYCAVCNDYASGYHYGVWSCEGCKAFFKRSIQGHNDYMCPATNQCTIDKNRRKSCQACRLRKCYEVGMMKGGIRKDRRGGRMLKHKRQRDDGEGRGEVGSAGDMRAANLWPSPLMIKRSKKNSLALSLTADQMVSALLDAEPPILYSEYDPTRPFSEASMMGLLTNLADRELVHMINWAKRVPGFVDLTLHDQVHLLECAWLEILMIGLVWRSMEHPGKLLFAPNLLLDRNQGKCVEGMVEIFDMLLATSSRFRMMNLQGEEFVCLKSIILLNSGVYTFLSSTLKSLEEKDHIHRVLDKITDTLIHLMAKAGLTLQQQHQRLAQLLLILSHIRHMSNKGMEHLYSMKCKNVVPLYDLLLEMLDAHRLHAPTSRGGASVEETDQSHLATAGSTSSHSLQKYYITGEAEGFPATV
Briefly: ERα cell-based luciferase reporter assay, agonist mode, transiently transfected HEK293 cells. Conditions: 24 h; for EC50: low = activity detected but too low for exact value. As for the experimental part:
as §1, §2

Setting [1] is: Trial 2 (believed more reliable).

Like-named read-outs stand apart in the source and are kept apart here.

T1 sequence (Q92731 whole entry): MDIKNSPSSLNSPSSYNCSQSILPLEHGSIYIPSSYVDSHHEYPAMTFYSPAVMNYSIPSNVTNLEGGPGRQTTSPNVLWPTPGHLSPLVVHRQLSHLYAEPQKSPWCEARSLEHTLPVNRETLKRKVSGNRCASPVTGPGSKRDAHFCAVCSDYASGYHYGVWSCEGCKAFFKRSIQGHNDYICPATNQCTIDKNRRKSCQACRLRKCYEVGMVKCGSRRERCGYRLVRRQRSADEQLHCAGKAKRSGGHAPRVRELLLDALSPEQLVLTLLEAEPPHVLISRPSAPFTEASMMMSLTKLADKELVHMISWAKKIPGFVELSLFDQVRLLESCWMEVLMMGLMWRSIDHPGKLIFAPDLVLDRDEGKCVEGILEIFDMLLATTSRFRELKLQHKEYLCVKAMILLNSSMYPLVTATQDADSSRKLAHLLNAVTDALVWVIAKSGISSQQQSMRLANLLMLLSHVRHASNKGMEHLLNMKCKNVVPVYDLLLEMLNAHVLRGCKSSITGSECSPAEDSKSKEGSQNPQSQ

Take “1-(4-hydoxyphenyl)-12-(1-hydroxyheptyl)-1,12-dicarba-closo-dodecaborane [Compound 06]”: the “ERβ Efficacy (%)” value on Human full-length ERβ (Trial 1) is 100%; at Human full-length ERβ (setting [1]) it was 103%. Moreover, the “ERβ Log(EC50) (M)” value is −7.71 M on Human full-length ERβ (Trial 1, log10 of EC50) and −7.76 M at Human full-length ERβ (Trial 2 (believed more reliable), log10 of EC50). The EC50 at Human full-length ERβ (Trial 1, read-out: ERβ EC50) amounted to 19 nM; on Human full-length ERβ (Trial 2 (believed more reliable), read-out: ERβ EC50), 17 nM; on Human full-length ERβ (differs from Table 5, luciferase reporter assay in HEK cells, read-out: EC50 at ERβ) it was 5 nM. Further, the “agonistic or antagonistic activities on GR” value on Human full-length GR is “no agonistic or antagonistic activities”. Also, the IC50 in the experiment on HEK293 cells (Trial 1) came to 18 µM; with HEK293 cells (setting [1]) it was 17 µM.

In the case of `C[C@]12CC[C@@H]3c4ccc(O)cc4CC[C@H]3[C@@H]1CC[C@@H]2O` [Compound E2, Estradiol], the “agonistic or antagonistic activities on GR” value on Human full-length GR is reported as “no agonistic or antagonistic activities”. For the same compound, in the experiment with HEK293 cells, the “HEK293 viability IC50 (μM)” value is “Low”.

Take `N#CC(Cc1ccc(O)cc1)c1ccc(O)cc1` (centres unmarked) [DPN, Diarylpropionitrile]: the “agonistic or antagonistic activities on AR” value on Human full-length AR is given as “no agonistic or antagonistic activities”. In addition, the “agonistic or antagonistic activities on GR” value on Human full-length GR is given as “no agonistic or antagonistic activities”. The “HEK293 viability IC50 (μM)” value in the experiment with HEK293 cells is “Low”.

Turning to `CCCc1c(-c2ccc(O)cc2)nn(-c2ccc(O)cc2)c1-c1ccc(O)cc1` [PPT, Propyl pyrazole triol], the “ERβ EC50 (nM)” value on Human full-length ERβ (24 h, low = activity detected but too low for exact value) is “low”. The “ERβ Log(EC50) (M)” value at Human full-length ERβ (log10 of EC50, negative values, 24 h, low = activity detected but too low for exact value) is given as “low”. Moreover, the “ERα Efficacy (%)” value on Human full-length ERα came to 101%. Further, the EC50 was 3.3 nM on Human full-length ERα (read-out: ERα EC50) and 3.31 nM on Human full-length ERα (log10 of EC50, negative values, read-out: ERα Log(EC50) (converted)).

The values above are taken from patent publication US11771712B2, “Carborane compounds and methods of use thereof” (OHIO STATE INNOVATION FOUNDATION, priority 2015, dated 2023).
